In PubChem BioAssay AID2745 (NMMLSC, 2010):

Tested on: S. cerevisiae LAP4-GFP reporter, flow cytometry fluorescence
Experiment: concentration series on yeast TOR reporter LAP4 – cell-based, MLPCN hits, flow cytometry, dose response (AID 2745);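 note: yeast exposed to compound for three hours at 30 degrees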

Structure (SMILES)	EC50
N/C(Cc1ccc(Cl)c(Cl)c1)=N\OC(=O)c1cccs1	5.04 µM
CCN1/C(=C/C(C)=C/c2sc3ccccc3[n+]2CC)Sc2ccccc21	4.21 µM
Cc1ccc2nc(Cl)c3nnnn3c2c1	3.84 µM
C/C(=N/NC(=O)c1ccc(C(C)(C)C)cc1)c1ccccn1	32.7 µM
CCCCS(=O)(=O)/C=C\C=C/S(=O)(=O)CCCC	2.54 µM
CC(C)(C)c1ccc(NC(=O)COC(=O)c2ccc([N+](=O)[O-])s2)cc1	3.72 µM
Cc1ccccc1N=Nc1ccc(O)c2ncccc12	7.96 µM
O=C1C=CC(=O)N1c1cccc(-c2ccccc2)c1	0.385 µM
O=C(Nc1nnc(-c2ccc(Cl)cc2)o1)c1ccccc1Br	4.31 µM
Cc1ccsc1/C=C1\C(=O)NC(=S)N(C)C1=O	0.327 µM
O=C(CCc1ccccc1)NNC(=S)NC(=O)c1ccccc1	32.2 µM
Cc1cccc2c1NC(=O)/C2=C\C(=O)c1cccs1	5.59 µM
Cc1[nH]n(-c2ccccc2)c(=O)c1C(c1ccccc1[N+](=O)[O-])C(C#N)C#N (centres undefined)	7.67 µM
O=C1C2C3C=CC(CO)(O3)C2C(=O)N1c1ccc(-c2ccccc2)cc1 (centres undefined)	1.53 µM
COC(=O)/C(=C/c1c[nH]c2ccccc12)[N+](=O)[O-]	20.7 µM
CNc1nc(N)c([N+](=O)[O-])c(Nc2cccc(F)c2)n1	5.5 µM
COc1ccc(N2CCN(C(=O)c3ccc(Br)cc3)CC2)c([N+](=O)[O-])c1	11.4 µM
O=C(COc1ccc(F)cc1Cl)Nc1nc(-c2ccccn2)cs1	2.98 µM
CC(=O)c1ccc(N2CCN(C(=O)c3ccc(Br)cc3)CC2)c(F)c1	9.91 µM
CCOC(=O)CSC1=NC(=O)/C(=C\c2ccc(Cl)cc2)S1	27 µM
Cc1ccc(C(=O)NNC(=S)NC(=O)COc2ccccc2)cc1	8.27 µM
O=C(c1ccc(C(=O)N2CCCc3ccccc32)s1)N1CCCc2ccccc21	7.77 µM
O=C(OCn1ncc(Br)c(Br)c1=O)c1ccc(F)cc1	19.1 µM
CCc1ccc2c(c1)/C(=C/C(=O)c1cccs1)C(=O)N2	4.07 µM
CCOC(=O)c1ccc(N=Cc2nc(-c3ccccc3)oc2OC(C)=O)cc1	25.9 µM

Structure (SMILES)	EC50
COc1cc(/C=C2\C(=O)N(CCC#N)N=C2C)c(Br)cc1OC(C)C	4.16 µM
COc1cccc(N=Nc2ccc(O)c3ncccc23)c1	3.36 µM
Oc1c(I)cc(I)c2cccnc12	0.7 µM
O=C1NC(=O)N(Cc2ccco2)C(=O)/C1=C/c1ccc(-c2cccc([N+](=O)[O-])c2)o1	6.36 µM
CC(=O)SC(C[N+](=O)[O-])c1cn(C(C)=O)c2ccccc12 (centres undefined)	10.7 µM
O=C(OCn1ncc(Br)c(Br)c1=O)c1c(F)cccc1F	16.9 µM
CCOC(=O)c1cc(-c2ccc(/C=C3/C(=O)NC(=O)C(C#N)=C3C)o2)ccc1Cl	1.36 µM
CC(Oc1cccc(Cl)c1)C(=O)Nc1nc(-c2ccccn2)cs1 (centres undefined)	25.1 µM
CC1=C/C(=N\OS(=O)(=O)c2ccccc2)C(C(C)C)=CC1=O	5.16 µM
CCCCCCCCn1sccc1=O	0.912 µM
O=S(=O)(CCN(CCS(=O)(=O)C(F)(F)F)CC1CCCO1)C(F)(F)F (centres undefined)	7.67 µM
COc1ccc(C2=CC(=O)N(Nc3ccccc3)C2=O)cc1	9.78 µM
CS(=O)(=O)c1nc(-c2cccs2)cc(C(F)(F)F)n1	30.5 µM
CCCOc1ccc(C(=O)NNC(=S)NC(=O)CC)cc1	11.5 µM
Cn1c(=O)c(C(=O)NNC(=O)c2ccc(Br)cc2)c(O)c2ccccc21	0.762 µM
N/C(Cc1ccc(Cl)cc1)=N\OC(=O)c1cccc2ccccc12	1.88 µM
O=[N+]([O-])c1cc(Cl)c2cccnc2c1O	0.859 µM
O=C(/C=C/c1ccc(Cl)c([N+](=O)[O-])c1)c1cccnc1	28.6 µM
O=[N+]([O-])c1cc(Cl)cc(/C=N\Nc2ccccn2)c1O	3.33 µM
CC(C)(C)c1nnc(N/N=C/c2cc(Br)ccc2O)n(N)c1=O	12.2 µM
CC(Oc1ccc(Cl)cc1)C(=O)NNC(=S)NC(=O)c1ccco1 (centres undefined)	7.2 µM
COc1ccc(/C=C/C(=O)C2C(=O)C=C(C)OC2=O)cc1O (centres undefined)	11.7 µM
O=C1ON=C(c2ccccc2)/C1=C/c1ccc(-c2ccccc2[N+](=O)[O-])o1	5 µM
Oc1ccc(Br)cc1/C=N/Nc1ccccn1	22.7 µM
CCOC(=O)COc1ccc2ccccc2c1/C=C/[N+](=O)[O-]	4.41 µM

Structure (SMILES)	EC50
O=C(Oc1c(Cl)cc(Cl)c2cccnc12)c1cccc([N+](=O)[O-])c1	2.02 µM
Cc1ccc(C2=NOC(=O)/C2=C\c2ccc(C)o2)cc1	4.47 µM
Cc1cccc(N=Nc2ccc(O)c3ncccc23)c1	14 µM
COc1ccccc1OCCCc1c(C)n[nH]c1C	20.1 µM
O=C1Oc2ccccc2C(=O)/C1=C/c1ccccc1O	3.75 µM
O=C(C#Cc1ccccc1)c1ccco1	5.17 µM
Cc1c(Cc2ccccc2)c(NCCN(C)C)n2c(nc3ccccc32)c1C#N	29.9 µM
Nc1ccc(Br)c2c1C(=O)c1ccccc1C2=O	1.18 µM
COc1cccc(C(=O)Nc2nnc(-c3ccc(Cl)cc3)o2)c1	3.84 µM
Cc1ccc(S(=O)(=O)c2ncccc2[N+](=O)[O-])cc1	14.6 µM
CCc1ccc(OCC(=O)NNC(=S)NC(=O)C2CC2)c(Br)c1	5.45 µM
O=C(Nc1ccc(Cl)cc1)ON=C1CCCC1	3.95 µM
COc1ccc([N+](=O)[O-])c(S(=O)(=O)c2ccc(Cl)cc2)n1	1.99 µM
O=C(/C=C/c1ccccn1)c1cc(Br)ccc1O	4.09 µM
Cc1cc(C(=O)COC(=O)c2ccc[nH]c2=O)c(C)n1-c1ccccc1F	0.863 µM
CC1(C)C[C@H]2C=C(C=O)[C@]3(C=O)C[C@]3(C)[C@H]2C1	0.865 µM
Cc1ccc(/C=C2\C(=O)NC(=S)N(c3ccc(F)cc3)C2=O)s1	1.15 µM
COc1cc(SSc2cc(OC)cc([N+](=O)[O-])c2N)c(N)c([N+](=O)[O-])c1	8.26 µM
CCSc1nnc(NC(=O)c2ccccn2)s1	30.3 µM
CC(C)(C)n1nc(-c2ccc(F)cc2)c2c(N)ncnc21	3.51 µM
O=[N+]([O-])c1ccc(S(=O)(=O)c2cccc(C(F)(F)F)c2)nc1	21.5 µM
Cc1ccc(S(=O)(=O)ON2C(=O)c3ccccc3C2=O)c(C)c1	3.89 µM
O=[N+]([O-])c1ccc(N=Nc2c(Cl)cc(O)cc2Cl)cc1	4.97 µM
CCOc1ccc(N2C(=O)/C(=C\c3cccs3)C(=O)NC2=S)cc1	1.96 µM
O=C1C=CC(=O)N1c1ccc(O)cc1	4.09 µM

Structure (SMILES)	EC50
O=c1/c(=C/c2cccc3ccccc23)sc2ncnn12	9.22 µM
Cc1ccc(N/N=C(\C#N)C(N)=S)c(C)c1	11.7 µM
CCCOc1ccc(C(=O)NNC(=S)NC(=O)c2ccco2)cc1	13.3 µM
Cc1cccc(C)c1NC(=O)C(Cl)C(=O)c1ccccc1 (centres undefined)	1.45 µM
O=C1NC(=S)NC(=O)C1=Cc1ccc2c(c1)CCN2CCCCl	4.06 µM
O=[N+]([O-])c1ccc(O)c(/C=N/Nc2ccccn2)c1	12.5 µM
CN1CCN(C(c2ccc(C(F)(F)F)cc2)c2ccc3cccnc3c2O)CC1 (centres undefined)	6.72 µM
COc1cccc2sc(Nc3nc(-c4ccccn4)cs3)nc12	1.36 µM
Oc1c(I)cc(Cl)c2cccnc12	0.986 µM
COc1ccc(N=Nc2ccc(O)c3ncccc23)cc1	6.43 µM
CCCCC(=O)NNC(=S)NC(=O)c1ccc(C)cc1	11.3 µM
O=C1C=CC(=O)N1c1ccc(N2CCCCC2)cc1	1.24 µM
O=C1NC(=O)N(Cc2ccc(F)cc2)C(=O)/C1=C/c1cccs1	3.41 µM
O=C(Nc1ccccc1)c1nnsc1S(=O)(=O)c1ccc(Cl)cc1	0.564 µM
CCc1sc(C(=O)Nc2nc(-c3ccccn3)cs2)cc1C	3.94 µM
c1ccc(-c2cccc(-c3ccccn3)n2)nc1	3.9 µM
CC1=NNC(=O)/C1=C\c1cn(-c2ccccc2)nc1-c1cccs1	1.32 µM
CC(C)(C)C(=O)C(Cl)C(=O)Nc1ccccc1 (centres undefined)	14.6 µM
Oc1ccc2ccccc2c1N=Nc1nccs1	8.45 µM
O=C1NC(=O)N(c2ccccc2)C(=O)/C1=C/c1ccc(Sc2ccccc2)o1	11.2 µM
Cc1cc(S(=O)(=O)ON2C(=O)c3ccccc3C2=O)ccc1F	4.21 µM
CCc1cc(C(=O)Nc2nc(-c3ccccn3)cs2)sc1C	5.96 µM
O=C(C#Cc1ccccc1)c1cccc([N+](=O)[O-])c1	7.75 µM
O=C1C=C(c2ccccc2)C(=O)N1Nc1ccccc1	1.62 µM
O=C1C=CC(=O)N1N(c1ccccc1)c1ccccc1	2.7 µM

Structure (SMILES)	EC50
O=c1[nH]c(-c2ccccn2)nc(C(F)(F)F)c1Br	2.55 µM
CC1=CC(=O)C(C(C)C)=C/C1=N/OS(=O)(=O)c1ccccc1	9.59 µM
CC(C)(C)n1nc(-c2ccc(Cl)cc2)c2c(N)ncnc21	4.82 µM
COc1ccc(C(=O)/C=C2/C(=O)Nc3ccccc32)cc1	3.38 µM
Cc1ccc(C(=O)O)cc1N=Cc1cc(Br)cc(Br)c1O	4.17 µM
Cc1cc(C(=O)Nc2nc(-c3ccccn3)cs2)ccc1[N+](=O)[O-]	6.15 µM
O=C(Nc1nc(-c2ccccn2)cs1)c1cc2ccccc2o1	4.09 µM
O=C(Oc1c(Cl)cc(Cl)c2cccnc12)c1ccco1	2.46 µM
O=C(c1ccccc1)c1ccccc1N1C(=O)C=CC1=O	2 µM
Cc1cc(O)c(C(=O)/C=C/c2ccc(Cl)cc2)c(=O)o1	6.38 µM
COc1ccc(C(c2c(C)[nH]n(C(N)=S)c2=O)C(C#N)C#N)cc1 (centres undefined)	2.08 µM
O=C1NC(=O)C(=Cc2ccc(-c3ccc(Cl)cc3)o2)C(=O)N1	1.41 µM
CC(Oc1ccc(Br)cc1)C(=O)Nc1nc(-c2ccccn2)cs1 (centres undefined)	4 µM
CC1=NOC(=O)/C1=C\c1ccc(-c2cc(Cl)ccc2Cl)o1	26.8 µM
O=[N+]([O-])c1cc(S(=O)(=O)C(F)(F)F)ccc1Sc1nc2ccccc2s1	8.42 µM
COc1ccc(/C=C/C(=O)NC(=S)NNC(=O)c2cnccn2)cc1	1.31 µM
O=c1oc2cc(Oc3c([N+](=O)[O-])cc(C(F)(F)F)cc3[N+](=O)[O-])ccc2c2c1CCCC2	3.04 µM
N/C(Cc1ccc(Cl)cc1Cl)=N\OC(=O)c1cccs1	4.48 µM
Cc1cccnc1Nc1nc(-c2ccccn2)cs1	3.7 µM
COc1cc(N2C(=O)C=CC2=O)c(OC)cc1Cl	1.44 µM
COc1cccc(/C=N/Nc2ncc(C(F)(F)F)cc2Cl)c1O	6.3 µM
O=C1c2ccccc2C(=O)C2OC12 (centres undefined)	19.6 µM
O=C1ON=C(c2ccccc2)/C1=C\c1ccco1	3.67 µM
CCCCCCCCC/C(=N\O)c1ccccn1	6.13 µM
